Consider seven compounds from ChEMBL document CHEMBL1201862, “PubChem BioAssay data set” (2004).

SMILES strings stand for the structures.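 All cell lines were grown in 96-well plates and treated with compound for 48 hours. GI50: concentration for 50% inhibition of growth.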 The source made the active and inactive calls. Cut-off read from the data, not from the text of the source: active = GI50 up to about 1.1 µM and inactive = higher. A value given as a limit tells only on which side of the number the result lay.

Holding throughout (test): DTP human tumour cell line panel, 48 h
For assay [1], the system named is UACC-257.
For assay [2], the system named is SF-295.
In assay [3] the test system is OVCAR-4.
In assay [4] the test system is A498.
Assay [5] deals with COLO 205.
Assay [6] concerns EKVX.
Assay [7] deals with TK-10.
The test system of assay [8] is HCC 2998.
Assay [9] relates to Malme-3M.
Assay [10] has as its system Hs-578T.
The subject of assay [11] is HCT-15.
Assay [12] concerns SF-268.
In assay [13] the test system is SK-MEL-28.
Assay [14] relates to SF-539.
In assay [15] the test system is HOP-92.
The subject of assay [16] is MCF7.
Assay [17] relates to HOP-62.
In assay [18] the test system is LOX IMVI.
The test system of assay [19] is NCI/ADR-RES.
In assay [20] the test system is MDA-MB-435.

Take `N#Cc1c(-c2ccc(Cl)cc2)c(C#N)c(=O)n(NS(=O)(=O)c2ccccc2)c1O`: the GI50 is 27.7 µM (inactive) in [1]; 30.1 µM (inactive) in assay [2]; 27.1 µM (inactive) in assay [3]; 24.9 µM (inactive) in assay [4]; 29.9 µM (inactive) in [5]; 28.1 µM (inactive) in [6]. Further, the GI50 is 39.1 µM (inactive) in assay [7]; 13.8 µM (inactive) in assay [8]; 49 µM (inactive) in assay [9]; 19.7 µM (inactive) in assay [10]; 22.3 µM in assay [11]; 35.6 µM (inactive) in assay [12]. Moreover, the GI50 is 26.4 µM (inactive) in assay [13]; 20.7 µM (inactive) in assay [14]; 19.3 µM (inactive) in assay [15]; 16.9 µM (inactive) in assay [16]; 27 µM (inactive) in assay [17]; 15.1 µM (inactive) in assay [18]. Also, the GI50 in assay [19] is 35.3 µM (inactive); in assay [20], 34.3 µM (inactive).
For `O=C1/C(=C/c2ccc([N+](=O)[O-])cc2)Sc2scc(-c3cccc([N+](=O)[O-])c3)[n+]21`, the GI50 in [1] is 5.32 µM (inactive); in [2] it was 14.2 µM (inactive); in assay [3] it was 9.53 µM (inactive); in assay [4], 3.13 µM (inactive); in assay [5], 1.85 µM (inactive); in [6] it was 6.7 µM (inactive). For the same compound, the GI50 in assay [7] was 5.18 µM (inactive); in assay [8] it was 5.56 µM (inactive); in assay [9], 1.33 µM (inactive); in assay [10], 8.81 µM (inactive); in [11] it was 2.26 µM; in assay [12], 2.15 µM (inactive). In addition, the GI50 in assay [14] was 2.37 µM (inactive); in [15], 3.66 µM (inactive); in assay [16], 4.09 µM (inactive); in [17], 15.5 µM (inactive); in assay [18] it was 2.41 µM (inactive); in [19], 5.89 µM (inactive). Besides, in assay [20], the GI50 is 5.46 µM (inactive).
For the compound `CC1(C)C(=O)C(C)(C)C12SSC1(S2)C(C)(C)C(=O)C1(C)C`, the GI50 was > 100 µM (inactive) in assay [1]; > 100 µM (inactive) in assay [2]; > 100 µM (inactive) in [3]; > 100 µM (inactive) in assay [4]; 67 µM (inactive) in assay [5]; > 100 µM (inactive) in [6]. Besides, the GI50 is > 100 µM (inactive) in [7]; > 100 µM (inactive) in assay [8]; 48.2 µM (inactive) in assay [9]; > 100 µM (inactive) in [10]; > 100 µM in assay [11]; > 100 µM (inactive) in assay [12]. The GI50 in assay [13], in assay [14], in assay [15], in [16], in [17] and in [18] was > 100 µM (inactive) throughout. For the same compound, the GI50 in assay [19] is 77.1 µM (inactive); in assay [20], > 100 µM (inactive).
With `COC(=O)C1=C(C(=O)OC)SC(=C2S[C@@H]3[C@@H]4C[C@H]([C@@H]3S2)[C@H]2C(=O)OC(=O)[C@@H]42)S1`, the GI50 in [1], in assay [2], in assay [3], in assay [4], in assay [5] and in assay [6] was > 100 µM (inactive) throughout. The GI50 in [7] is > 100 µM (inactive); in assay [8], > 100 µM (inactive); in assay [9], > 100 µM (inactive); in assay [10] it was > 100 µM (inactive); in assay [11], > 100 µM; in assay [12] it was > 100 µM (inactive). Further, the GI50 in assay [13], in assay [14], in assay [15], in [16], in assay [17] and in assay [18] was > 100 µM (inactive) each time. Moreover, the GI50 in [19] and in assay [20] was > 100 µM (inactive) throughout.
On to `Oc1c2ccccc2c2c3c(cccc13)N=N2` [SP-600125], for which the GI50 was 29.5 µM (inactive) in assay [1]; 22.5 µM (inactive) in assay [2]; 31.9 µM (inactive) in [3]; 7.03 µM (inactive) in [4]; 19.5 µM (inactive) in assay [5]; 20 µM (inactive) in assay [6]. The GI50 in [7] was 5.93 µM (inactive); in assay [8], 9.62 µM (inactive); in assay [9], 16.4 µM (inactive); in assay [10], 55.1 µM (inactive); in assay [11], 8.04 µM; in assay [12] it was 18.5 µM (inactive). The GI50 is 37.6 µM (inactive) in assay [13]; 32.2 µM (inactive) in [14]; 37.6 µM (inactive) in [15]; 49 µM (inactive) in assay [16]; 69.3 µM (inactive) in assay [17]; 12.8 µM (inactive) in assay [18]. Further, the figures for the GI50 in [19] and in assay [20] were 22.6 µM (inactive) and 12.8 µM (inactive), respectively.
Regarding `Oc1cc(O)c2c(c1)O[C@H](c1cc(O)c(O)c(O)c1)[C@H](O)C2` [EPIGALLOCATECHIN], the GI50 was > 100 µM (inactive) in assay [1]; 30.5 µM (inactive) in [2]; 14.7 µM (inactive) in assay [3]; > 100 µM (inactive) in assay [4]; 18.2 µM (inactive) in assay [5]; > 10 µM (inactive) in assay [6]. The GI50 in assay [8] was > 10 µM (inactive); in assay [9], > 100 µM (inactive); in assay [10] it was 52 µM (inactive); in assay [11], 34.8 µM; in assay [12], 25.4 µM (inactive); in assay [13] it was 36.6 µM (inactive). The GI50 is 20.3 µM (inactive) in assay [14]; 20.7 µM (inactive) in [15]; 20.8 µM (inactive) in assay [16]; 19.7 µM (inactive) in [17]; 27.9 µM (inactive) in assay [18]; 22.6 µM (inactive) in assay [19]. Moreover, in [20], the GI50 was 6.9 µM (inactive).
For `C/C(=N\NC(=S)Nc1ccccc1)c1nc2cccnc2[nH]1`, the GI50 is 2.18 µM (inactive) in [1]; 3.46 µM (inactive) in assay [2]; 0.927 µM (active) in assay [3]; 8.17 µM (inactive) in [4]; 3.78 µM (inactive) in assay [5]; 0.649 µM (active) in assay [6]. Further, the GI50 in [8] is 2.91 µM (inactive); in [9], 2.18 µM (inactive); in assay [10], 14 µM (inactive); in assay [11], 2.66 µM; in [12], 0.583 µM (active); in assay [13], 0.706 µM (active). For the same compound, the GI50 in [14] was 1.46 µM (inactive); in assay [15], 12.9 µM (inactive); in assay [16], 0.338 µM (active); in assay [17] it was 8.47 µM (inactive); in assay [18] it was 2.31 µM (inactive); in assay [19] it was 3.3 µM (inactive). For the same compound, in assay [20], the GI50 is 3.7 µM (inactive).
